Experimental data as given in patent US11931347B2, “Method of screening for agents for differentiating stem cells” (MINERVA BIOTECHNOLOGIES CORPORATION, priority 2015, dated 2024).

Experiments:
[1] = tested on: human primed state stem cells; experiment: stem cell drug screening assay on primed state stem cells; assay type: cell-based; settings: 6 uM, 3 days
Description: (§1) The stem cell screening assay, was performed in both the presence and absence of the stem cell growth factors: NME7AB for growing naïve stem cells or FGF for growing primed stem cells. If the cognate growth factor was present, then the biological or small molecule would have to compete away the growth factor to get an effect. Therefore, we expected to see more of an effect when the growth factor, FGF for primed stem cells or NME7AB or NME1 dimers for naïve stem cells, was absent. The effect of the compounds on stem cells was visually determined and compounds were ranked 0-4, with 4 being the greatest effect and 0 being no observable effect. The major effect that was observed was a change from pluripotent stem cell morphology, which is a cobblestone pattern of small round cells with a large nucleus to cytoplasm ratio, to that of differentiating stem cells, which are elongated, large and flattened cells with a smaller nucleus to cytoplasm ratio. […] The compounds were added to a final concentration of 6 uM to either naïve state stem cells or primed state stem cells. In this particular case, the naïve state stem cells were maintained in a naïve state by culturing in a media containing NME7AB or NME1 dimers. However, other methods such as 2i and 5i (Silva et al., 2008, Nichols and Smith, 2009, Theunissen et al., 2014)] can be used to maintain stem cells in a more naïve state. In this case primed state stem cells were cultured in bFGF over a layer of MEFs, although it is known that any bFGF containing media will maintain stem cells in the primed state.
Stem cells whether embryonic or induced pluripotent stem (iPS) cells were cultured in a minimal, serum-free media that contained human recombinant bFGF at a concentration of 8 ng/mL. The stem cells were plated over a layer of inactivated mouse embryonic fibroblasts, aka MEFs, which secrete additional uncharacterized growth factors and cytokines.
(§2) Human naïve state and primed stem cells were cultured in parallel for at least 5 passages to guarantee normal differentiation-free growth. The stem cells were plated in 12-well cell culture plates with 50,000 cells per well. Cells were cultured in their respective media, either bFGF media or NME7AB media for 24 hours. Media was then removed and replaced with media devoid of bFGF or NME7AB, when indicated. Agents being tested for their ability to induce differentiation of naïve stem cells were added to the media at the concentrations indicated. After 72 hours, photographs were taken see FIGS. 1-10.
(§3) Human naïve state and primed stem cells were cultured in parallel for at least 5 passages to guarantee normal differentiation-free growth. The stem cells were plated in 12-well cell culture plates with 50,000 cells per well. Cells were cultured in their respective media, either bFGF media or NME7AB media for 24 hours. Media was then removed and replaced with media devoid of bFGF or NME7AB. […] Media was changed after 48 hours and replaced with fresh media containing the BRD4 inhibitors. After 4 days the experiment was stopped. Photographs were taken and cell pellets collected for further analysis, see FIGS. 11-16.

[2] = tested on: human naïve state stem cells; experiment: stem cell drug screening assay on naïve state stem cells; assay type: cell-based; settings: 6 uM, 3 days
Description: as §1
Stem cells whether embryonic or induced pluripotent stem (iPS) cells were cultured in a minimal, serum-free media that contained human recombinant NME7AB at a concentration of 2-32 nM wherein 4-8 nM is preferred and 4 nM is more preferred. To facilitate surface attachment, cell culture plates were coated with an anti-MUC1* monoclonal antibody called MN-C3 or C3 or MN-C8 at a concentration of 2-100 ug/mL coating solution, wherein 3-50 ug/mL is preferred and 6-12.5 ug/mL is more preferred. In these experiments, 12.5 ug/mL of MN-C3 was used. Antibody coated plates were incubated at 4 degrees C. overnight prior to plating stem cells. A Rho kinase I inhibitor was added to enhance surface attachment. In some cases, NME7AB was substituted with human recombinant NME1 dimers which also induce stem cells to revert to a naïve-like state.
as §2, §3

T47D breast cancer cells [3] = experiment: cancer cell proliferation assay (Calcein live cell stain); assay type: cell-based, human; settings: for inhibition of growth of T47D cells: live cell Calcein stain, 96 hours (FIG. 113)
Description: These analogs of MN1194 and 1186 were also tested in a cell growth assay (FIGS. 107A1-107H6 and FIG. 108A1-108H6, respectively). In this experiment, both parent compound and analogs thereof were added to normal cell culture media to final concentrations of 40 uM, 20 uM, 10 uM, 5 uM or 2.5 uM. For comparison, previously known cancer cell migration inhibitors SU11274 and MN1204 were included in the same experiment. […] Relative cell proliferation is quantified on a standard plate reader that reads the fluorescence of the Calcein that is taken up by live cells.
Small molecule inhibition of cancer cell proliferation studies were also performed on several cancer sub-types. […] The small molecules of the invention had the most robust effect on T47D breast cancer cells, which are highly positive for MUC1* growth factor receptor, and its activating ligands NME7AB and NME7-X1.
(§4) For the cancer cell proliferation experiment cancer cells were plated at constant densities (6000 cells/well) into a 96-well White-walled/Clear-bottom Tissue Culture Treated plate (Corning Incorporated, Big Flats, N.Y.). Small molecule analogs are added at T=24 hours in media with 2% FBS. Following the addition of the small molecules, the cells remain untouched for 120 hours with visual confirmations/inspections at 24, 48, 72 and 96 hours post plating. At the 120 hour mark a calcein fluorescence assay (Thermo Fisher Scientific, Waltham, Mass.) is performed on the plate. Calcein fluorescence (final concentration 0.5 uM) is used to assess cell viability. Cancer cell fluorescence is measured in a TECAN SAFIRE^2 spectrophotometer plate reader. The plate is then imaged using an Olympus IX71 fluorescence imaging microscope and montage of the resulting images are assembled using ImageJ.

[4] = tested on: DU145 MUC1* positive prostate cancer cells; experiment: cancer cell proliferation assay (Calcein); assay type: cell-based; settings: 96 hours (FIG. 109)
Description: as §4, with “Small molecule inhibition of cancer cell proliferation studies were also performed on several cancer sub-types. […] The small molecules of the invention had the most robust effect on T47D breast cancer cells, which are highly positive for MUC1* growth factor receptor, and its activating ligands NME7AB and NME7-X1. […] For” for “For”

[5] = tested on: MDA-MB-453 breast cancer cells; experiment: cancer cell proliferation assay (Calcein); assay type: cell-based; settings: 96 hours (FIG. 110)
Description: as §4, with “Small molecule inhibition of cancer cell proliferation studies were also performed on several cancer sub-types. […] The small molecules of the invention had the most robust effect on T47D breast cancer cells, which are highly positive for MUC1* growth factor receptor, and its activating ligands NME7AB and NME7-X1. […] For” for “For”

[6] = tested on: PC-3 MUC1* negative, NME7AB positive prostate cancer cells; experiment: cancer cell proliferation assay (Calcein); assay type: cell-based; settings: 96 hours (FIG. 111)
Description: as §4, with “Small molecule inhibition of cancer cell proliferation studies were also performed on several cancer sub-types. […] The small molecules of the invention had the most robust effect on T47D breast cancer cells, which are highly positive for MUC1* growth factor receptor, and its activating ligands NME7AB and NME7-X1. […] For” for “For”

T47D breast cancer cells [7] = experiment: cancer cell migration, invasion assay (Platypus/Oris system); assay type: cell-based, human; settings: T47D, 120 hours
Description: We then tested an expanded panel of agents, including agents known to inhibit cancer growth or migration (FIG. 17) (Horm et al., 2012; Meng & Yue, 2014; Zhen et al., 2014), which is characteristic of aggressive or metastatic cancers. We also synthesized a series of novel small molecules, tested them in the stem cell drug screening assay, and then synthesized analogs of the best hits. These small molecules are pictured in FIGS. 18-27. Both the known compounds and the novel compounds were tested in the stem cell drug screening assay. The effects of the small molecules on naïve versus primed state stem cells are shown in the photographs of FIGS. 29-72. The small molecules pictured in FIGS. 17-27 and the biologicals were also tested in a cancer cell migration assay. A structure activity relationship table is seen in FIG. 28. Potent cancer cell migration is characteristic of cancer cell invasion of other tissues and of metastasis. Typical migration assays involve coating a cell culture plate with fibronectin, collagen or the like, plating cancer cells and making a scar across through the cells and measuring the time it takes for the cancer cells to invade the void space. An alternative approach that gives more reliable data is the Platypus System which is a special multi-well cell culture plate with a juxtaposed set of plugs that block off a circle in the center of each well. Cancer cells are plated while the plugs are in place, then they are removed after the cells attach to the plate surface. […] A bar graph summarizing the results of the known anti-migration compounds compared to the anti-MUC1* Fab E6 and the first few small molecules synthesized is shown in FIG. 73. The effect of two novel small molecules MN1186 and MN1194, compared to the known anti-migration molecule SU11274, is shown in FIG. 75A-75U. FIG. 75V is a graph showing the measured inhibition of cancer cell migration at time 0, 24 hours or 48 hours for a number of compounds. […] FIG. 75X is a graph showing how IC50's of the small molecules of the invention were measured and calculated.
Percent inhibition of cancer cell migration was performed in a wound healing assay. The Percent area that the invading cancer cells occupied, in the presence of a drug candidate compared to the controls, was quantified by Image J cell software which enables cell counting from photographs. IC50's were calculated by performing migration experiments at several compound concentrations and then applying Hill's equation. Inhibition of cancer cell proliferation was quantified by automated cell counting in the presence or absence of a drug candidate. Here, the potency of the drug candidate was simply scored 4 for the highest degree of inhibition and 0 for the lowest. […] The effect of each drug candidate was scored 0-4, with 4 being the highest in inhibiting cell proliferation (FIG. 28).
For the cancer cell migration experiment cancer cells were plated at varying densities into an Oris Cell Migration Assay Collagen-1 coated 96-well plate (Platypus Technologies LLC, Madison, Wis.). The Collagen-1 coated 96-well plate incorporates a specific vacuum plug which attaches to the bottom of each well, creating an area in which the cells cannot grow into. Once the cells have been plated at high densities into each well, they are allotted an 18-24 hour time period to attach to the bottom of the wells. Post-24 hour plugs are removed from the plate and then small molecule analogs are added to the wells. Images are taken of each well and represent time 0 (T=0) for each well. Images are taken of the wells at the 24, 48, 72, 96 and 120 hour time points. Data analysis is conducted using the images taken at these specific time point. Images are imported into ImageJ (Rasband, W. S., ImageJ, U. S. National Institutes of Health, Bethesda, Md., USA, http://imagej.nih.gov/ij/, 1997-2016.) and the area remaining free of cells is calculated. […]

[8] = tested on: E-cadherin, fibronectin, vimentin and NF1 expression in naïve stem cells; experiment: RT-PCR of differentiation markers in treated naïve stem cells; assay type: cell-based, human
Description: FIG. 161 is a graph of RT-PCR measurement of naïve stem cells that have been treated with compounds of the invention. The genes whose expression is measured are E-cadherin, which goes […] as cells undergo epithelial to mesenchymal transition, fibronectin and vimentin, which both increase as stem cells initiate differentiation and NF1, which is one of the first genes to increase when stem cells begin to differentiate down the neural lineage. […] E-cadherin is the opposite; it […] as cells become cancerous. […] Expression of metastatic marker E-cadherin was reduced and expression of differentiation markers fibronectin, vimentin and NF1 were increased (FIG. 162-FIG. 163). Novel compounds of the invention are highly specific. […] Although we discovered that NME1 dimers, NME7AB and NME7-X1 are all activating ligands of the MUC1* growth factor receptor and they bind to its extracellular domain, we have developed ample evidence that both NME7AB and NME7-X1 have other binding partners and can exert oncogenic effects, independent of MUC1*.

SMILES: CCCCNC(=O)N1CCc2c([nH]c3ccccc23)C1C(C)c1ccccc1 (centres unmarked) [MN1130]
- effect on primed stem cell pluripotency, growth or differentiation (visually determined) [1]: modest effect
- effect on naïve stem cell pluripotency, growth or differentiation (visually determined) [2]: induced differentiation
- inhibition of growth of T47D cells (T47D breast cancer cells [3]): severely inhibited growth
- inhibition of growth of DU145 cells [4]: inhibited the growth
- inhibition of growth of MDA-MB-453 cells [5]: inhibited the growth
- inhibition of growth of PC-3 cells [6]: inhibited the growth

SMILES: CC(C)CC1c2[nH]c3cc(F)ccc3c2CCN1C(=O)CNC(=O)OC(C)(C)C (centres unmarked) [MN1227]
- inhibition of cancer cell migration (T47D breast cancer cells [7]): improvements over MN1186
- inhibition of cancer cell proliferation relative to parent compounds (T47D breast cancer cells [3]; T47D, Calcein assay after 120 hours, 40-2.5 uM): inhibit cancer cell proliferation better than parent compounds
- inhibition of growth of T47D cells (T47D breast cancer cells [3]): severely inhibited growth
- inhibition of growth of DU145 cells [4]: inhibited the growth
- inhibition of growth of MDA-MB-453 cells [5]: inhibited the growth
- inhibition of growth of PC-3 cells [6]: inhibited the growth

SMILES: CC(C)C1c2[nH]c3ccccc3c2CCN1C(=O)CCCCNC(=O)OC(C)(C)C (centres unmarked) [MN1235]
- up-regulation of markers of differentiation in naïve stem cells (RT-PCR) [8]: failed to induce differentiation

SMILES: CC(C)CC1c2[nH]c3ccccc3c2CCN1C(=O)C1CCC(CNC(=O)OC(C)(C)C)CC1 (centres unmarked) [MN1246]
- inhibition of growth of T47D cells (T47D breast cancer cells [3]): severely inhibited growth
- inhibition of growth of DU145 cells [4]: inhibited the growth
- inhibition of growth of MDA-MB-453 cells [5]: inhibited the growth
- inhibition of growth of PC-3 cells [6]: inhibited the growth
